The values below come from ChEMBL document CHEMBL1811856 (J Med Chem, 2011).

Molecules are shown by their SMILES.

Test [1] is described as follows: Displacement of [3H]spiperone from dopamine D2 like receptor in porcine striatal membranes after 30 mins by scintillation counting. It counts as cell membranes, Sus scrofa, Striatum, Membrane. In general terms: Displacement assays read how much labelled ligand stays bound in the presence of the test substance.
Test [2] is described as follows: Displacement of [3H]SCH-23390 from dopamine D1 like receptor in porcine striatal membranes after 30 mins by scintillation counting. It counts as cell membranes, Sus scrofa, Striatum, Membrane.
For another test, the species on record is Sus scrofa. Nature of the test: Selectivity ratio Ki for dopamine D2 like receptor in porcine striatal membranes to Ki for dopamine D1 like receptor in porcine striatal membranes. It counts as cell membranes.

By Ki is commonly meant the dissociation constant of the complex between target and ligand, obtained from inhibition or displacement. Consider `C[C@@H]1Cc2cc(O)c(O)cc2[C@H]2c3ccccc3CN[C@@H]21`, for which the Ki is 7.38 µM in test [1] and over 10 µM in test [2]. Besides, in the test listed under Sus scrofa, the Ratio Ki was under 0.74.

As to `C[C@@H]1C[C@H]2NCc3ccccc3[C@@H]2c2cc(O)c(O)cc21` (racemic), the Ki was found to be 5.53 µM in test [1] and 0.27 µM in test [2]. Moreover, the Ratio Ki in the test listed under Sus scrofa stood at 20.

On to `C[C@H]1C[C@H]2NCc3ccccc3[C@@H]2c2cc(O)c(O)cc21` (racemic), for which the values for the Ki in test [1] and in test [2] were 3.63 µM and 0.92 µM, respectively. In the test filed under Sus scrofa, the Ratio Ki turned out to be 3.9.

For `C[C@H]1Cc2cc(O)c(O)cc2[C@H]2c3ccccc3CN[C@@H]21` (racemic), the Ki is 8.67 µM in test [1] and 6.54 µM in test [2]. In addition, in the test filed under Sus scrofa, the Ratio Ki came out at 1.3.

For `Oc1cc2c(cc1O)[C@H]1c3ccccc3CN[C@@H]1CC2` (racemic) [DIHYDREXIDINE], the affinity in test [1] corresponds to a Ki of 0.24 µM.
